Where a SMILES comes first, the peptide text is derived from it. [ ]: non-standard residue; d: D form. Dopa = N[C@@H](Cc1ccc(O)c(O)c1)C(=O)O
Legend:
red blood cells (RBC) = test: Blood/plasma ratio, partitioning into red blood cells, minipig blood ex vivo; assay type: in vitro ADME; conditions: for KRBC/PL: 50 ng/mL
[1] = Long-term stability of 30% LD-Tyrosine/0.75% carbidopa at 2-8° C.; assay type: physicochemical
Description: The formulation also included 0.5% ascorbic acid (Asc), 0.5% N-acetyl cysteine (NAC) and 0.3% Tween 80. The formulation was stored at 2-8° C. for the time indicated, and % recovery and % LD-Tyr-DKP formation (an impurity) were tested. Percent recovery remained high over time. The DKP impurity accumulated over time.

Compound: N[C@@H](Cc1ccc(O)c(O)c1)C(=O)N[C@@H](Cc1ccc(O)cc1)C(=O)O [LD-Tyr, levodopa-tyrosine (LD-Tyr) conjugate of the formula (II)] (H-[Dopa]-Tyr-OH)
- RBC binding (red blood cells (RBC); minipig blood): limited RBC binding
- KRBC/PL (red blood cells (RBC); minipig blood, after 30 minutes (declined)): 0.0
- KRBC/PL (red blood cells (RBC); minipig blood, at 15 and 30 minutes): 1
- partition coefficient between RBC and plasma (KRBC/PL) (red blood cells (RBC); minipig blood, 50, 150 and 2500 ng/mL): below five
- KRBC/PL versus time of incubation (red blood cells (RBC); minipig blood, two highest concentrations (150 and 2500 ng/mL)): increased with the time of incubation
- % DKP ([1]; 1 month): 1.88 % area
- mg/mL (concentration in formulation) ([1]; 1 month): 295.74 mg/mL
- % DKP ([1]; 1 week): 0.99 % area
- mg/mL (concentration in formulation) ([1]; 1 week): 294.13 mg/mL
- % DKP ([1]; 2 months): 2.60 % area
- mg/mL (concentration in formulation) ([1]; 2 months): 302.47 mg/mL
- % DKP ([1]; 2 weeks): 1.19 % area
- mg/mL (concentration in formulation) ([1]; 2 weeks): 304.25 mg/mL
- % DKP ([1]; 3 months): 4.04 % area
- mg/mL (concentration in formulation) ([1]; 3 months): 296.57 mg/mL
- % DKP ([1]; t = 0): 0.86 % area
- mg/mL (concentration in formulation) ([1]; t = 0): 297.62 mg/mL

From patent US20240207410A1, “STABILIZED LIQUID COMPOSITIONS COMPRISING A LEVODOPA-TYROSINE CONJUGATE AND USES THEREOF” (NeuroDerm, Ltd., priority 2021, published 2024)
